{
  "source": "paper PMC6813295",
  "about": "“A tumour-selective cascade activatable self-detained system for drug delivery and cancer imaging” (Nature Communications, 2019)",
  "tested_on": "H460 cells",
  "type": "cell-based, human",
  "conditions": "confocal",
  "description": "Fig. 3 Recognition and self-assembly of molecule 1 in cells. a Western blots of XIAP expression in H460 and 293T cells. b Confocal images of H460 cells treated with or without energy-dependent inhibitor (oligomycin A, 20 μM) for 1 h, and followed by washing with PBS and treated with the molecule 1 (50 μM) for 1 h. c Statistical analysis of average fluorescence intensities in the cytoplasm of H460 cells from confocal images. Data are presented as the mean ± s.d. (n = 100). ***p < 0.001, p values were performed with one-way ANOVA followed by post hoc Tukey’s test for the indicated comparison. d Confocal images of time-dependent monitoring of H460 and 293T cells treated with the molecule 1 (50 μM) for 1 h followed by washing with PBS and replacing the medium and a further incubation up to 48 h. e Statistical analysis of average fluorescence intensities in the cytoplasm of H460 and 293T cells from confocal images with a timescale range of 1–48 h. Data are presented as the mean ± s.d. […] Finally, incubate up to 6 h and imaging by confocal microscope. g Schematic diagram illustrates the process of NBD fluorescence illumination. h Confocal images of H460 cells treatment with molecule 1-NBD (50 μM) for 1 h. i TEM images of ultrathin section of H460 cells treated with molecule I-1 (50 μM) and without the molecule I-1 for up to 12 h. […]",
  "note": "Where a SMILES comes first, the peptide text is derived from it. The star is where a group is joined. X1 = CC1(C)C(=CC=C2CCCC(C=CC3=[N+](CCCCCC(=O)O)c4ccccc4C3(C)C)=C2*)N(CCCCCC(=O)O)c2ccccc21",
  "data": [
    {"molecule": "CC[C@H](C)[C@H](NC(=O)[C@@H]1CCCN1C(=O)[C@@H](NC(=O)[C@H](C)N)C(C)C)C(=O)N[C@@H](C)C(=O)N[C@@H](CCC(N)=O)C(=O)N[C@@H](CCCCN)C(=O)N[C@@H](CC(=O)O)C(=O)N[C@@H](CCC(=O)O)C(=O)N[C@H](C(=O)N[C@@H](CC(=O)O)C(=O)N[C@@H](CCCCN)C(=O)N[C@@H](CC(C)C)C(=O)N[C@H](C(=O)N[C@@H](Cc1ccccc1)C(=O)N[C@@H](Cc1ccccc1)C(=O)N[C@@H](C)C(=O)N[C@@H](CCC(=O)O)C(=O)N[C@@H](CSC1=C(C=CC2=[N+](CCCCCC(=O)O)c3ccccc3C2(C)C)CCCC1=CC=C1N(CCCCCC(=O)O)c2ccccc2C1(C)C)C(=O)NCC(=O)O)C(C)C)C(C)C", "note": "[molecule 1] (H-AVPIAQKDEVDKLVFFAEC(X1)G-OH)", "values": [
      {"measurement": "uptake pathway into cells", "setting": "H460, filipin III 5 μg/ml, chlorpromazine 10 μg/ml, amiloride 10 μM, 1 h, 50 μM 2 h, 37 °C", "value": "caveolin-mediated endocytic pathway"},
      {"measurement": "internalization into cells, energy dependence", "setting": "H460, oligomycin A 20 μM 1 h, then 50 μM 1 h, n = 100", "value": "energy-dependent"}
    ]}
  ]
}
